# Results published in patent US4769461A, “Quinolinyl benzene hydroxamic acids as anti-inflammatory/antiallergic agents” (American Home Products Corporation, priority 1986, dated 1988).
# Where two headings read alike, the source gives them in different places.
# Columns and labels:
# [1] = system: carrageenan paw edema (acute inflammatory response); assay: Rat carrageenan paw edema assay; format: in vivo, rat (male Sprague-Dawley); conditions: for % Inhibition at 100 mg/kg (peroral): 1 hour prior to carrageenan, edema at 3 hours; for ED50: Rattus norvegicus, po, read-out: Oral ED50 (95% C.L.) mg/kg
# Experimental: The compounds of the invention are further tested in the rat carrageenan paw edema assay to determine their ability to inhibit the acute inflammatory response. This assay is carried out as follows: 140-180 gm male Sprague-Dawley rats, in groups of 6 animals are injected subcutaneously in the right paw with 0.1 ml of 1% carrageenan at zero time. Mercury plethysmographic readings (ml) of the paw are made at zero time and 3 hours later. Test compounds are suspended or dissolved in 0.5% methylcellulose and given perorally 1 hour prior to carrageenan administration. The increase in paw volume (edema in ml.) produced by the carrageenan is measured. […] Unpaired Student's t-test is used to determine statistical significance.
# [2] = system: LTD4 induced bronchoconstriction; assay: Inhibition of bronchospasm induced in guinea pigs by exogenously administered leukotrienes C4 and/or D4; format: in vivo, guinea pig (male Hartley); conditions: 10 minutes before induction of bronchospasm; for ED50: Cavia porcellus, read-out: IC50 (the source's name)
# Experimental: The assay of this Example measures the in vivo ability of the compounds of the invention to inhibit the bronchospasm induced in guinea pigs by the exogenously administered leukotrienes C4 and/or D4.
# This assay is carried out as follows:
# Male Hartley strain guinea pigs (350-600 g) are anesthetized with pentobarbital sodium (50 mg/kg, i.p.). The jugular vein is cannulated for injection of drugs and the carotid artery for monitoring blood pressure. The trachea is cannulated for artificial ventilation by a miniature Starling pump and for indirect measurement of respiratory volume changes. The animals are then pretreated with succinylcholine (2 mg/kg i.v.) and indomethacin (10 mg/kg i.v. in trizma 8.3 buffer, 9 minutes prior to leukotriene challenge). Submaximal bronchoconstrictor responses are established in control animals by varying the dose-levels of leukotriene. Intravenous dose-levels for LTC4 range from 0.4 to 0.6 μg/kg and for LTD4 the range is from 0.3 to 0.5 μg/kg. The aerosol bronchoprovocation dose for LTC4 is generated from 1.6 μM solution and for LTD4 from a 2.0 μM solution.
# Test drugs (dissolved in a solvent such as propylene glycol, polyethylene glycol 400 or saline) are administered either intraduodenally, by aerosol or perorally at 2 or 10 minutes before induction of bronchospasm by administration of either LTC4 or LTD4 at the predetermined dose-levels. Aerosols of soluble drugs or leukotrienes are produced in-line for 10 seconds only by actuation of an ultrasonic nebulizer (Monaghan). Aerosolized drug dosage is expressed in terms of solution concentration and by a fixed aerosol exposure time (approximately 10 seconds). Control animals receive solvent (2 ml/kg i.d. or appropriate aerosol) in place of drug.
# Respiratory volume changes are determined by a calibrated piston whose travel is recorded, via a linear transducer, on a Beckman Dynograph recorder. Maximal bronchoconstrictor volume is determined by clamping off the trachea at the end of the experiment. Overflow volumes at 1, 3 and 5 minutes are obtained from the recorded charts.
# Area under the volume overflow curve (AUC) is estimated, using the overflow values at 1, 3 and 5 minutes, and expressed as a percentage of the maximal overflow AUC (equation 1): [formula] Drug effects are reported as percent inhibition of % max AUC values obtained from appropriate control animals (equation 2): [formula]
# Student's t-test for unpaired data is used to determine statistical significance (p<0.05). IC50 values can also be determined by inverse prediction from linear regression lines through points between 10 and 90% inhibition.
# [3] = system: ovalbumin induced bronchospasm mediated by endogenous products of lipoxygenase oxidation of arachidonic acid; assay: Inhibition of ovalbumin induced bronchospasm in guinea pigs by endogenous mediators of bronchoconstriction; format: in vivo, guinea pig (male Hartley); conditions: 10 minutes before ovalbumin challenge; for ED50: Cavia porcellus
# Experimental: The assay of this Example measures the in vivo ability of the compounds of the invention to inhibit the bronchospasm induced in guinea pigs by endogenous mediators of the bronchoconstriction.
# (§1) The assay is carried out as follows:
# Male Hartley strain guinea pigs weighing 250-350 g are sensitized to chicken ovalbumin (OA) (10 mg i.p.) on days 1 and 3 and used starting on day 26. The animals are anesthetized with pentobarbital sodium (50 mg/kg, i.p.), bilateral vagotomy is performed, and the jugular vein is cannulated for injection of drugs and the carotid artery for monitoring blood pressure. The trachea is cannulated for artificial ventilation by miniature Starling pump and for indirect measurement of respiratory volume changes. Succinylcholine (2 mg/kg, i.v.) is administered to arrest spontaneous respiration. A cyclooxygenase inhibitor, indomethacin (10 mg/kg in tris buffer, i.v. at 9 min.) is administered to shunt arachidonic metabolism to lipoxygenase pathways. One minute later, chlorpheniramine (1.0 mg/kg in saline, i.v.) is given to attenuate the histaminic component of anaphylactic bronchoconstriction. Test drugs (dissolved in propylene glycol, polyethylene glycol or saline) are administered either intraduodenally, perorally or by aerosol at 2 or 10 minutes before antigen challenge. Anaphylactic bronchoconstriction is induced by administration by breaths of aerosolized OA (1%) or by intravenous administration of 0.1-0.3 mg/kg OA in saline. Control animals receive solvent (2 ml/kg i.d. or appropriate aerosol) in place of drug.
# Respiratory volume changes are determined by a calibrated piston whose travel is recorded, via a linear transducer, on a Beckman Dynograph recorder. Maximal bronchoconstrictor volume is determined by clamping off the trachea at the end of the experiment. Overflow volumes at minutes 1, 3 and 5 are obtained from the recorded charts.
# Area under the volume overflow curve (AUC) is estimated, using the overflow values at 1, 3 and 5 minutes, and expressed as a percentage of the maximal overflow AUC (equation 1): [formula] Drug effects are reported as percent inhibition of % max AUC values obtained from appropriate control animals (equation 2): [formula] Student's t-test for unpaired data is used to determine statistical significance. Dose response curves are generated and ED50 doses are interpolated from the regression lines.
# [4] = system: synthesis of the lipoxygenase product 5-HETE in rat polymorphonuclear leukocytes; assay: Inhibition of 5-HETE synthesis by rat glycogen elicited polymorphonuclear leukocytes; format: cell-based, rat (female Wistar)
# Experimental: The assay of this Example measures the ability of the compounds of the invention to inhibit the synthesis of 5-HETE by rat glycogen elicited polymorphonuclear leukocytes.
# as §1
# (§2) Peritoneal PMN are obtained from female Wistar rats (150-250 g) that received an i.p. injection of 6% glycogen (10 ml). After 24 hours, rats are killed by CO2 asphyxiation and peritoneal cells are harvested by peritoneal lavage using Ca^++ and Mg^++ free Hanks' balanced salt solution (HBSS). The peritoneal exudate is centrifuged at 400 g for 10 minutes. After centrifugation, the lavaged fluid is removed and the cell pellet is resuspended in HBSS containing Ca^++ and Mg^++ and 10 mM L-cysteine at a concentration of 2×10^7 cells/ml. To 1 ml portions of cell suspension, test drugs or vehicle are added and incubated at 37° C. for 10 minutes. Following this preincubation, the calcium ionophore (10 μM), A23187, is added together with 0.5 μCi [14 C] arachidonic acid and further incubated for 10 minutes. The reaction is stopped by the addition of ice cold water (3 ml) and acidifying to pH 3.5. […] After chromatography, the areas associated with 5-HETE standard are identified by autoradiography, cut out and quantitated by liquid scintillation.
# The compounds of this invention are tested in this assay at a level of 10 μm. […] Some results are expressed as an IC50 value.
# [5] = system: synthesis of the cyclooxygenase product PGE2 in rat polymorphonuclear leukocytes; assay: Inhibition of synthesis of the cyclooxygenase oxidation product PGE2 (procedure of Example 5); format: cell-based, rat (female Wistar); conditions: tested at 10 μm
# Experimental: as §2, with “3.5. Lipoxygenase products are then extracted twice into diethyl ether.” for “3.5.”, “scintillation. […]” for “scintillation.”
# In this assay, the procedure of Example 5 is carried out as described. […] After chromatography, the areas associated with the PGE2 standard are identified by autoradiography, cut out and quantitated by liquid scintillation techniques.
# The results are calculated as in Example 5.
# [6] = 25 mg/kg perorally administered
smiles,measurement,setting,value
"O=C(Cc1cccc(OCc2ccc3ccccc3n2)c1)NOCc1ccccc1 [Example 2C, O-benzyl-3-[(2-quinolinyl)methoxy]benzeneaceto hydroxamate]",% Inhibition at 100 mg/kg (peroral),[1],37%
"CONC(=O)c1cccc(OCc2ccc3ccccc3n2)c1 [Example 2A, O-methyl-3-[(2-quinolinyl)methoxy]benzoic hydroxyamate]",% Inhibition,[2]; 25 mg/kg intraduodenally,92.8%
same,% Inhibition,[2]; 25 mg/kg perorally,72.4%
same,ED50,"[2]; po, perorally administered",13.1 mg/kg
same,ED50,[2]; intraduodenally administered,3.16 mg/kg
same,% Inhibition of Max AUC,[3]; 25 mg/kg intraduodenal,76.6%
same,% Inhibition of Max AUC,[3]; [6],-1.5%
same,% Inhibition at 100 mg/kg (peroral),[1],32%
"O=C(NOCc1ccccc1)c1cccc(OCc2ccc3ccccc3n2)c1 [Example 2B, O-benzyl-3-[(2-quinolinyl)methoxy]benzoic hydroxamate]",% Inhibition,[2]; 25 mg/kg intraduodenally,69.4%
same,>50% Inhibitory at 10 μm,[4]; tested at 10 μm,"+ (those compounds having an inhibition of >50% are designated by a ""+"")"
same,>50% Inhibition at 10 μm,[5],"+ (those compounds having an inhibition of >50% are designated by a ""+"")"
same,% Inhibition at 100 mg/kg (peroral),[1],42%
"CONC(=O)Cc1cccc(OCc2ccc3ccccc3n2)c1 [Example 1, O-methyl-3-[(2-quinolinyl)methoxy]benzeneaceto hydroxamate]",% Inhibition,[2]; 25 mg/kg intraduodenally,90.6%
same,% Inhibition,[2]; 25 mg/kg perorally,86.3%
same,ED50,"[2]; po, perorally administered",5.9 mg/kg
same,ED50,[2]; intraduodenally administered,1.8 mg/kg
same,% Inhibition of Max AUC,[3]; 25 mg/kg intraduodenal,56.0%
same,% Inhibition of Max AUC,[3]; [6],82.8%
same,ED50,"[3]; po, perorally administered",2.5 mg/kg
same,ED50,[3]; intraduodenal,7.3 mg/kg
same,IC50,"[4]; Leukocyte, rat PMN",10.5 µM
same,% Inhibition at 100 mg/kg (peroral),[1],50%
"CONC(=O)Cc1cccc(OCc2nc3ccccc3n2C)c1 [Example 2D, O-methyl-3-[1-methyl(2-benzimidazoyl)methoxy]benzoaceto hydroxamate]",>50% Inhibition at 10 μm,[5],"+ (those compounds having an inhibition of >50% are designated by a ""+"")"
same,% Inhibition at 100 mg/kg (peroral),[1],48%
"CC(=O)Oc1ccccc1C(=O)O [Aspirin, reference compound]",ED50,[1],145 mg/kg
"O=C(NO)c1cccc(OCc2ccc3ccccc3n2)c1 [Example 4A, 3-[(2-quinolinyl)methoxy]benzoic hydroxamic acid]",% Inhibition,[2]; 25 mg/kg intraduodenally,32.8%
"CONC(=O)Cc1cccc(OCc2nc3ccccc3s2)c1 [Example 2E, O-methyl-3-[(2-benzthiazoyl)methoxy]benzoaceto hydroxamate]",% Inhibition at 100 mg/kg (peroral),[1],38%
"O=C(Cc1cccc(OCc2ccc3ccccc3n2)c1)NO [Example 3, 3-[(2-Quinolinyl)methoxy]benzeneaceto hydroxamic acid]",% Inhibition,[2]; 25 mg/kg intraduodenally,10%
"COc1ccc2c(c1)c(CC(=O)O)c(C)n2C(=O)c1ccc(Cl)cc1 [Indomethacin, reference compound]",ED50,[1],3.7 mg/kg
